In data set [1] the test system is platinum-resistant ovarian cancer. Conditions: cited from earlier work.
Data set [2] concerns HCT-116 human colorectal cancer cell line. Nature of the data set: IC50 in HCT-116 human colorectal cancer cell line. The settings on record: for IC50: Homo sapiens. The data set is classed as cell-based. As to the method:
Each of the cryptophycin analogs was assessed using a zone assay as a relative comparison of potency over a variety of cell lines (see Table 1), and the IC50 for each analog was determined in the HCT-116 human colorectal cancer cell line.

Data on five compounds can be found in US11530204B2, “Biocatalytic synthesis of cryptophycin anticancer agents” (priority 2019, dated 2022).

For the compound `COc1ccc(C[C@H]2NC(=O)/C=C/C[C@@H]([C@H](C)[C@H]3O[C@@H]3c3ccccc3)OC(=O)[C@H](CC(C)C)OC(=O)C(C)(C)CNC2=O)cc1Cl` [cryptophycin 52], in data set [1] (clinical trials), the dose-limiting toxicity result is listed as “dose-limiting peripheral neuropathy”. Moreover, the clinical outcome in data set [1] (platinum-resistant ovarian cancer) is recorded as “significant disease stabilization”.

Compound `COc1ccc(C[C@H]2NC(=O)/C=C/C[C@@H]([C@H](C)/C=C/c3ccncc3)OC(=O)[C@H](CC(C)C)OC(=O)[C@H](C)CNC2=O)cc1Cl` [4 pyridyl, (3S,6R,10R,16S,E)-10-(3-chloro-4-methoxybenzyl)-3-isobutyl-6-methyl-16-((R,E)-4-(pyridin-4-yl)but-3-en-2-yl)-1,4-dioxa-8,11-diazacyclohexadec-13-ene-2,5,9,12-tetraone] came in with an IC50 in data set [2] of 0.51 nM. This lies in the sub-nanomolar range. Consider `COc1ccc(C[C@H]2NC(=O)/C=C/C[C@@H]([C@H](C)/C=C/c3cccnc3)OC(=O)[C@H](CC(C)C)OC(=O)[C@H](C)CNC2=O)cc1Cl` [3 pyridyl, (3S,6R,10R,16S,E)-10-(3-chloro-4-methoxybenzyl)-3-isobutyl-6-methyl-16-((R,E)-4-(pyridin-3-yl)but-3-en-2-yl)-1,4-dioxa-8,11-diazacyclohexadec-13-ene-2,5,9,12-tetraone], for which half-maximal inhibition in data set [2] (IC50) was put at 0.86 nM. Compared with the last compound, the IC50 is about 1.7-fold higher.

Regarding `COc1ccc(C[C@H]2NC(=O)/C=C/C[C@@H]([C@H](C)/C=C/c3cnn(C)c3)OC(=O)[C@H](CC(C)C)OC(=O)[C@H](C)CNC2=O)cc1Cl` [4 methyl pyrazole, (3S,6R,10R,16S,E)-10-(3-chloro-4-methoxybenzyl)-3-isobutyl-6-methyl-16-((R,E)-4-(1-methyl-1H-pyrazol-4-yl)but-3-en-2-yl)-1,4-dioxa-8,11-diazacyclohexadec-13-ene-2,5,9,12-tetraone], in data set [2], the potency in words result is “low pico-molar”. The compound `COc1ccc(C[C@H]2NC(=O)/C=C/C[C@@H]([C@H](C)/C=C/c3ccccn3)OC(=O)[C@H](CC(C)C)OC(=O)[C@H](C)CNC2=O)cc1Cl` [2 pyridyl, (3S,6R,10R,16S,E)-10-(3-chloro-4-methoxybenzyl)-3-isobutyl-6-methyl-16-((R,E)-4-(pyridin-2-yl)but-3-en-2-yl)-1,4-dioxa-8,11-diazacyclohexadec-13-ene-2,5,9,12-tetraone] showed an IC50 in data set [2] of 102 nM. That is a sub-micromolar value.

By IC50 is commonly meant the concentration needed to halve the response being measured.
